Bridge positions count the residues as written; N and C are the ends. Peptide text beside a SMILES is read from it.
Experiments:
Assay type in all cases: cell-based
[1] = test system: sodium channel currents in rat DRG neurons; settings: 10 μM; n = 3
[2] = test system: potassium channel currents in rat DRG neurons; settings: 10 μM
[3] = test system: calcium channel currents in rat DRG neurons
human Cav2.2 = settings: 10 μM; SD

For `CSCC[C@@H]1NC(=O)[C@H](CCC(N)=O)NC(=O)[C@@H]2CSSC[C@@H](C(=O)N3CCC[C@H]3C(N)=O)NC(=O)[C@@H]3CSSC[C@H](NC(=O)[C@@H](NC(=O)CNC(=O)[C@@H](N)CCC(N)=O)CSSC[C@H](NC(=O)[C@H](C)NC(=O)[C@H](C)NC1=O)C(=O)N[C@@H](CC(N)=O)C(=O)N1CCC[C@H]1C(=O)N1CCC[C@H]1C(=O)N1CCC[C@H]1C(=O)N3)C(=O)N1CCC[C@H]1C(=O)N1CCC[C@H]1C(=O)NCC(=O)N[C@@H](C(C)C)C(=O)N2` [Vr3a] (H-QGCCPPGVCQMAACNPPPCCP-NH2; disulfide 3-14, 4-19, 9-20), the “effect on the peak of the sodium currents” value [1] was “no effects”, the “shift in the activation curve of sodium channels (change of V50)” value [1] was ~ 10 mV and the “shift in the current-voltage relationship of sodium channels” value [1] was ~ 10 mV. The “shift in the inactivation curve of sodium channels (change of V50)” value [1] was ~ 5 mV, the “shift in the recovery curve, delaying sodium channel recovery” value [1] was ~ 0.002 second and the “increase of the peak potassium currents” value ([2]; SD) was 19.61 ± 5.12%. The “shift in the current-voltage relationship of potassium channels” value ([2]; n = 3) was “do not induce a shift”, the “inhibition of the peak calcium currents” value ([3]; 10 μM, SD) was 31.26% ± 4.53% and the “shift in the current-voltage relationship of calcium channels” value ([3]; 10 μM, n = 3) was “do not induce a shift”. The IC50 ([3]; SD) was 19.3 ± 4.32 µM and the “inhibition of human Cav2.2 currents” value (human Cav2.2) was 12.86% ± 4.93%.

— publication PMC8230863 (The Journal of Venomous Animals and Toxins Including …, 2021)
